The values below come from patent EP2935252B1, “NOVEL BIS-CHROMONE DERIVATIVES, METHODS FOR THEIR PREPARATION AND USES THEREOF” (Rijksuniversiteit te Groningen, priority 2012, dated 2014).

Molecules are shown by their SMILES.

One data set relates to LAD2 mast cell line. The experiment in a line: β-hexosaminidase release assay: inhibition of Compound 48/80-evoked mast cell degranulation. It is filed as cell-based, human. The conditions noted are these: for IC50: LAD2 cells; for change in inhibitory activity after photoisomerization: non-irradiated vs 365 nm irradiated; for potency relative to DSCG: β-hexosaminidase release assays, Fig. 3; for efficacy: concentration response curves, Fig. 3, Compound 48/80 1.0 µM. The method, then: LAD2 Cell culture The human mast cell line LAD2 was kindly provided by Dr. A. Kirshenbaum (National Institute of Allergy and Infectious Diseases, Bethesda, MD). LAD2 cells were cultured in suspension at 37 °C, 95% relative humidity and 5% CO2 in StemPro-34 Serum-free medium (Invitrogen) supplemented with 2 mM L-glutamine (Sigma Aldrich), 100 IU/mL penicillin (Sigma Aldrich), 100 µg/mL streptomycin (Sigma Aldrich) and 100 ng/ml rhSCF (Invitrogen). Cells were not allowed to grow beyond a density of 5.0 x 10^5 cells/mL and fresh medium was supplied once a week.
β-Hexosaminidase Assay β-Hexosaminidase release was measured according to a previously published method.^28 In short, 50 µL of supernatant was transferred to a 96-well plate. To this 100 µL of a 2 mg/mL solution of p-nitrophenyl- N-acetyl-D-glucosaminidine in citrate buffer pH 4.5 was added. The plate was incubated at 37 °C for 1 h. The reaction was stopped by adding 100 µL of 0.4 M glycine solution and the absorbance was measured on a plate reader at a wavelength of 405 nm. Subsequently, the percentage released β-hexosaminidase was determined by comparison with the absorption of cell lysate of the same cells using the following formula: (supernatant)/(supernatant + lysate) × 100% = % Reaased β−Hexosaminidase. [formula]
Inhibitory Activity Tests LAD2 cells were suspended in HEPES buffer at a concentration of 50,000 cells/mL. 80 µL of cell suspension was transferred to a microreaction cup to which 10 µL of inhibitor solution was added. This was incubated at 37 °C for 30 min after which 10 µL of a Compound 48/80 solution was added. Next, the cell suspension was incubated for 30 min at 37 °C and the β-hexosaminidase release was assayed.
MAC and PAC seem to have an almost 100 times greater inhibitory potency than DSCG.
Next, the difference in inhibitory activity between the two photoisomers of DAC, MAC and PAC was determined. The inhibitory activity was determined for each compound at two concentrations that were on the steep part of the concentration response curve, because at these concentrations a possible difference in inhibitory activity is best detectable. LAD2 cells were incubated with either non-irradiated solutions of DAC, MAC and PAC or with solutions that were irradiated with 365 nm light prior incubation. After evoking a degranulation with Compound 48/80, β-hexosaminidase release was determined.. […] At a concentration of 10 µM the relative difference in inhibitory activity between the two forms of PAC is 25% (see Figure 4).

The nature of data set [1]: Ratio of trans and cis photoisomers determined by RP-HPLC at the isosbestic point. The data set is classed as physicochemical. The method, then:
Photoswitching Experiments Irradiation experiments were performed with a Spectroline ENB-280C/FE UV lamp (365 nm) and Thor Labs OSL1-EC Fiber Illuminator (white light).
The photoswitchable behavior of DAC, MAC and PAC was studied using UV-VIS spectroscopy and RP-HPLC. The trans-isomers of DAC, MAC and PAC have a characteristic absorbance maximum between 300 and 400 nm in water. This absorbance maximum decreases when the molecules are photoswitched to their cis-isomers and a new absorbance maximum appears around 430 nm (Fig. 2A-C).^25 Isosbestic points at 405 nm (DAC), 270 nm (MAC) and 270 nm (PAC) clearly illustrate the selective isomerization and reversibility of the photoswitching process. Using RP-HPLC, the ratio of photoisomers was determined for both the non-irradiated and 365 nm-irradiated forms of DAC, MAC and PAC (Table 1). Higher photostationary states were obtained when the photoswitchable inhibitors were irradiated with 365 nm light in DMSO as compared to water (Table 1). Therefore, the compounds were switched at a high concentration in DMSO and diluted in water to obtain a maximum concentration of 1% DMSO (v/v). […]
Table 1 Ratio of trans and cis isomers of the photoswitchable inhibitors under different conditions. Ratios are determined at the isosbestic point (DAC=405 nm, MAC=270 nm, PAC=270 nm) with RP-HPLC (C18, flow 1 mL/min, MeCN and H3PO4pH=3.0).

The mark [2] stands for this setting: Homo sapiens, light or radiation study, degranulation evoked by 1.0 µM Compound 48/80, non-irradiated inhibitors, 30 min pre-incubation, n=3.

What is called IC50 is the concentration needed to halve the response being measured. In the case of `O=C([O-])c1cc(=O)c2c(OCc3ccc(/N=N/c4ccc(COc5cccc6oc(C(=O)[O-])cc(=O)c56)cc4)cc3)cccc2o1.[Na+].[Na+]` [PAC, Sodium (E)-5,5'-(((diazene-1,2-diylbis(4,1-phenylene))bis(methylene))bis(oxy))bis(4-oxo-4H-chromene-2-carboxylate)], the inhibitory activity entry with LAD2 mast cell line (Compound 48/80 1.0 µM) is recorded as “significantly greater inhibitory activity than the original drug DSCG”. In the data set on LAD2 mast cell line (Homo sapiens, LAD2, light or radiation study, concentration of 10 µM, non-irradiated form more active than irradiated form, read-out: relative difference in inhibitory activity between non-irradiated and 365 nm irradiated form), the inhibition at 10 µM was 25%. Further, in the data set with LAD2 mast cell line (setting [2]), the IC50 stood at 28 µM. In the data set with LAD2 mast cell line, the “change in inhibitory activity after photoisomerization” value was “A significant difference was observed” and the “potency relative to DSCG” value is listed as around 100 times. Moreover, the “cis isomer in the photo stationary state (PSS)” value in data set [1] (irradiated form (365 nm)) came out at 81%. Moreover, the “trans isomer in the photo stationary state (PSS)” value in data set [1] (non-irradiated form) was 91%.
For the compound `O=C([O-])c1cc(=O)c2cc(/N=N/c3ccc4oc(C(=O)[O-])cc(=O)c4c3)ccc2o1.[Na+].[Na+]` [DAC, Sodium (E)-6,6'-(diazene-1,2-diyl)bis(4-oxo-4H-chromene-2-carboxylate)], the inhibitory activity result in the data set with LAD2 mast cell line (Compound 48/80 1.0 µM) is reported as “significantly greater inhibitory activity than the original drug DSCG”. Further, in the data set on LAD2 mast cell line (setting [2]), the IC50 stood at 272 µM. In the data set with LAD2 mast cell line, the efficacy result is reported as “greater efficacy than PAC” and the “change in inhibitory activity after photoisomerization” value was “a significant change in inhibitory activity after photoisomerization was not observed”.
For `O=C([O-])c1cc(=O)c2c(OCc3cccc(/N=N/c4cccc(COc5cccc6oc(C(=O)[O-])cc(=O)c56)c4)c3)cccc2o1.[Na+].[Na+]` [MAC, Sodium (E)-5,5'-(((diazene-1,2-diylbis(3,1-phenylene))bis(methylene))bis(oxy))bis(4-oxo-4H-chromene-2-carboxylate)], the inhibitory activity result with LAD2 mast cell line (Compound 48/80 1.0 µM) was “significantly greater inhibitory activity than the original drug DSCG”. Moreover, the midpoint of inhibition in the data set on LAD2 mast cell line (setting [2]), the IC50, lay at 10 µM. In addition, in the data set on LAD2 mast cell line, the efficacy entry is recorded as “greater efficacy than PAC” and the “potency relative to DSCG” value was around 100 times.
On to `O=C([O-])c1cc(=O)c2c(OCC(O)COc3cccc4oc(C(=O)[O-])cc(=O)c34)cccc2o1.[Na+].[Na+]` [DSCG, DiSodiumCromoGlycate, reference compound], for which the inhibitory activity result in the data set on LAD2 mast cell line (Compound 48/80 1.0 µM) is “did not show any inhibitory activity”; in the data set on LAD2 mast cell line (lower concentration of Compound 48/80 (0.1 µM), data not shown), “able to inhibit mast cell degranulation”. In the data set with LAD2 mast cell line (degranulation evoked by 1.0 µM Compound 48/80, n=3), this compound displayed an IC50 above 1000 µM.
